# Measured values from patent US12297210B2, “Naphthyridine compounds and uses thereof” (Genentech, Inc., priority 2018, dated 2025).
# Target: T1, HPK full length, T165E S171E (Homo sapiens, UniProt Q92918, S171E/T165E)
# T1 construct: HPK full length, T165E S171E: 0.125 nM
# Test: HPK1-FL HTRF Enzymatic Assay ("HTRF")
# Type: biochemical
# Settings: ATP 1 mM, read-out: HPK1 Ki (nM) H = HTRF
# Description: Example B1: HPK1-FL HTRF Enzymatic Assay (“HTRF”)
# HPK-FL enzyme phosphorylates Biotin-SLP-76 substrate in the presence of ATP at 1 mM and varying concentrations of test compound. Product is detected by FRET using Eu-anti-pSLP76 Ab and SA-XL665. Also see www.cisbio.com/HTRF for additional HTRF technology information.
# • Echo555 compound dispenser • Agilent Bravo • Perkin Elmer Envision Final Assay Conditions: • HPK full length, T165E S171E: 0.125 nM • Biotin-SLP76: 100 nM • ATP: 1 mM (ATP Km=20 μM) • Eu-anti-pSLP76: 2 nM • SA-XL665: 8.3 nM • Preincubation time: 30 min • Kinase reaction time: 60 min • Temperature: ambient • Total volume: 12 μl • ATP^app Km: 17.7 μM Materials: • Assay plate: White ProxiPlate 384 F (PerkinElmer cat #6008289) • Kinase: HPK full length double mutant • Substrate: Biotin-SLP76 • ATP: 100 mM ATP • BSG: 2% BSG • DMSO: DMSO(Sigma cat #34869-100ML) • Reaction Buffer: H2O/50 mM HEPES, pH 7.5/10 mM MgCl2/2 mM TCEP/0.01% Brij-35/0.01% BSG • Detection mix: Eu-anti-pSLP76/SA-XL665 (Cisbio, #610SAXAC) Assay Procedure Ki Determination:
# To a 384 well Proxiplate with 80 nL compound or DMSO spotted on was added 4 μl/well kinase mix. The mixture was preincubated for 30 minutes and then 4 μl/well substrate mix was added. The solution was incubated for 60 min and then 4 μl/well detection mix was added. The solution was incubated for another 60 min. The plates were then loaded onto a Perkin Elmer Envision and the TR-FRET signal was measured at 615 and 665 nm. A ratio of […] was used to calculate the % activity at each concentration of compound.
# T1 sequence (Q92918 whole entry T165E/S171E): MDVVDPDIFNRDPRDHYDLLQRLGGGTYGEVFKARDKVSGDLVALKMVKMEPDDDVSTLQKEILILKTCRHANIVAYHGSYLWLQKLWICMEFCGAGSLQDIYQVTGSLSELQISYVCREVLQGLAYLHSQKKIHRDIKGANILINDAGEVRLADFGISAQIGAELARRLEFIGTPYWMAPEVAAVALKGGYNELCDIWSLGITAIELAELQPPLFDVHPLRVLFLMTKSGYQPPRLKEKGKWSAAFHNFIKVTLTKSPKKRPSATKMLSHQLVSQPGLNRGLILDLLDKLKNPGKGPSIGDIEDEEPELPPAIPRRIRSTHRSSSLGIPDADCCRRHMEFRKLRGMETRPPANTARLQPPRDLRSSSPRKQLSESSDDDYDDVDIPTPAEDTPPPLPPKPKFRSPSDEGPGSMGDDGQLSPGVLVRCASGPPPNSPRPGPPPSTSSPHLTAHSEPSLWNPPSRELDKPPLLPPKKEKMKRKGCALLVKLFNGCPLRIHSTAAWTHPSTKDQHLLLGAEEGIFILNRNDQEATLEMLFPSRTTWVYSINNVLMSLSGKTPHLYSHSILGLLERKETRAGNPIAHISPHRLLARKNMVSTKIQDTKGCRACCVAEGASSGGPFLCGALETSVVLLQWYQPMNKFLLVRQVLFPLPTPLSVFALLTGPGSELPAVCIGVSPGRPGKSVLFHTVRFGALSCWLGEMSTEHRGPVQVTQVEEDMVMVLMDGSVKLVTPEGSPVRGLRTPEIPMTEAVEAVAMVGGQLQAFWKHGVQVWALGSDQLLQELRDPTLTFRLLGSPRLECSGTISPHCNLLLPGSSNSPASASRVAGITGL
row,Structure (SMILES),Ki
1,"Cc1ccncc1-c1cc2cc(Nc3ccc(CO)cn3)ncc2cn1 [Compound 206, (6-((6-(4-methylpyridin-3-yl)-2,7-naphthyridin-3-yl)amino)pyridin-3-yl)methanol]",577 nM
2,"Cc1ccncc1-c1cc2cc(Nc3cc(C(=O)N(C)C)c(N)cn3)ncc2cn1 [Compound 201, 5-amino-N,N-dimethyl-2-((6-(4-methylpyridin-3-yl)-2,7-naphthyridin-3-yl)amino)isonicotinamide]",463 nM
3,"Cc1cc(Nc2cc3cc(C4CC4)ncc3cn2)ncn1 [Compound 209, 6-cyclopropyl-N-(6-methylpyrimidin-4-yl)-2,7-naphthyridin-3-amine]",> 2000 nM

# Other lines, results leading:
row,Ki,Structure (SMILES)
1,0.66 nM,"Cc1c(-c2cc3cc(Nc4cc5n(n4)CC(=O)N(C)CC5)ncc3c(C)n2)cnc2c1NCCO2 [Compound 108, 6-methyl-2-((8-methyl-6-(8-methyl-2,3-dihydro-1H-pyrido[2,3-b][1,4]oxazin-7-yl)-2,7-naphthyridin-3-yl)amino)-5,6-dihydro-4H-pyrazolo[1,5-d][1,4]diazepin-7(8H)-one]"
2,291 nM,"Cc1ccncc1-c1cc2cc(Nc3ccc(S(C)(=O)=O)cn3)ncc2cn1 [Compound 202, 6-(4-methylpyridin-3-yl)-N-(5-(methylsulfonyl)pyridin-2-yl)-2,7-naphthyridin-3-amine]"
3,4 nM,"Cc1c(N)cncc1-c1cc2cc(Nc3cc4n(n3)CC(=O)N(CC(F)F)CC4)ncc2cn1 [Compound 102, 2-((6-(5-amino-4-methylpyridin-3-yl)-2,7-naphthyridin-3-yl)amino)-6-(2,2-difluoroethyl)-5,6-dihydro-4H-pyrazolo[1,5-d][1,4]diazepin-7(8H)-one]"
4,2.1 nM,"COc1nc(-c2cnc3c(c2C)NCCO3)cc2cc(Nc3cc4n(n3)CC(=O)N(C)CC4)ncc12 [Compound 107, 2-((8-methoxy-6-(8-methyl-2,3-dihydro-1H-pyrido[2,3-b][1,4]oxazin-7-yl)-2,7-naphthyridin-3-yl)amino)-6-methyl-5,6-dihydro-4H-pyrazolo[1,5-d][1,4]diazepin-7(8H)-one]"
5,0.85 nM,"Cc1c(N)cncc1-c1cc2cc(Nc3cc4n(n3)Cc3nccn3CC4)ncc2c(C)n1 [Compound 105, N-(6-(5-amino-4-methylpyridin-3-yl)-8-methyl-2,7-naphthyridin-3-yl)-5,6-dihydro-11H-imidazo[1,2-a]pyrazolo[1,5-d][1,4]diazepin-8-amine]"
6,2.3 nM,"Cc1c(N)cncc1-c1cc2cc(Nc3cc4n(n3)CC(=O)N(C(C)C)CC4)ncc2cn1 [Compound 104, 2-((6-(5-amino-4-methylpyridin-3-yl)-2,7-naphthyridin-3-yl)amino)-6-isopropyl-5,6-dihydro-4H-pyrazolo[1,5-d][1,4]diazepin-7(8H)-one]"
7,0.03 nM,"Cc1c(-c2cc3cc(Nc4cc5n(n4)CC(=O)N(C)CC54CC4)ncc3c(C)n2)cnc2c1NCCO2 [Compound 109, 6′-methyl-2′-((8-methyl-6-(8-methyl-2,3-dihydro-1H-pyrido[2,3-b][1,4]oxazin-7-yl)-2,7-naphthyridin-3-yl)amino)-5′,6′-dihydrospiro[cyclopropane-1,4′-pyrazolo[1,5-d][1,4]diazepin]-7′(8′H)-one]"
8,13 nM,"CNCc1cc(C)c(-c2cc3cc(Nc4cc5n(n4)CC(=O)N(C)CC5)ncc3cn2)c(F)c1 [Compound 110, 2-((6-(2-fluoro-6-methyl-4-((methylamino)methyl)phenyl)-2,7-naphthyridin-3-yl)amino)-6-methyl-5,6-dihydro-4H-pyrazolo[1,5-d][1,4]diazepin-7(8H)-one]"
9,2.5 nM,"Cc1c(N)cncc1-c1cc2cc(Nc3cc4n(n3)CC(=O)N(C(C)C)CC4)ncc2c(C)n1 [Compound 106, 2-((6-(5-amino-4-methylpyridin-3-yl)-8-methyl-2,7-naphthyridin-3-yl)amino)-6-isopropyl-5,6-dihydro-4H-pyrazolo[1,5-d][1,4]diazepin-7(8H)-one]"

# Target: T2, HPK1 (Homo sapiens, UniProt Q92918)
# T2 construct: purchased Signalchem M23-11G
# T2 sequence (Q92918 1-346 limits assumed): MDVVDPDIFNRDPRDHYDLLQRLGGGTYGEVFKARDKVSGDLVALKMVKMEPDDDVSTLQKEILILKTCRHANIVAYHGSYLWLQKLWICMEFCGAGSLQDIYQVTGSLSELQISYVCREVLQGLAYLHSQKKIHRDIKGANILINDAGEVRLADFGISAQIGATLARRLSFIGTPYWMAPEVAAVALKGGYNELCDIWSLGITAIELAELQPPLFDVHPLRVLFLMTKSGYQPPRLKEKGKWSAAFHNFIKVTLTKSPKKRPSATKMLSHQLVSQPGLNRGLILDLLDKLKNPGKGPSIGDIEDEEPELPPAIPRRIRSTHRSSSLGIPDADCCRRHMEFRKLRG
# Test: HPK1 Lantha Binding Assay ("Lanth")
# Settings: 15 nM Tracer222, read-out: HPK1 Ki (nM) L = Lanth
# Description: Example B2: HPK1 Lantha Binding Assay (“Lanth”)
# The compounds to be tested were diluted by preparing 12.5 uL/well of 5 mM compound (100×) in columns 2 and 13 and 10 ul/well of DMSO in columns 3-12, 14-23, and wells A1-H1 and I24-P24 of the compound plate using a Bravo liquid handling platform. For the reference compound, the top concentration was 1 mM. To the plate was added 10 ul 2 mM staurosporine in wells J1-P1 and A24-H24. A 11 point 5-fold compound serial dilution was performed using the Bravo liquid handling platform. From the plate were transferred 2.5 ul of the solutions from column 2 and column 13 to the 10 ul of DMSO in columns 3 and 14 & so on. The compound plate was centrifuged at 2500 rpm for 1 min. From the compound plate was transferred 80 nl of the compounds into an assay plate using the Echo liquid handler system. One compound plate makes two assay plates. Each assay plate is sealed and stored in an N2 cabinet.
# The following assay concentrations and times were used: 2 nM HPK1, 2 nM Eu-Anti-GST Ab, and 15 nM Tracer222, with 60 min incubation time.
# For the binding assay, 4 ul 2×HPK1 and Eu-anti-GST antibody were added to each well of the assay plate using a Multidrop reagent dispenser. The solutions were incubated in a 23 C incubator for 1 h. To each well of the assay plate was added 4 ul 2×Tracer-222 using a Multidrop reagent dispenser. The solutions were again incubated in a 23 C incubator for 1 h. The results of the assay were read using an Envision plate reader with the following parameters: TR_FRET, 340ex/615 and 665em; 100 usec Delay; and 200 usec integration.
# Compound Ki was analyzed using Morrison ki fit model in XL-fit • a. fit=(1−((((E+x)+(Ki*(1+(S/Kd))))−(((((E+x)+(Ki*(1+(S/Kd))))^2)−((4*E)*x))^0.5))/(2*E))) • res=(y-fit) • b. Parameters: • E=enzyme concentration • S=Tracer222 concentration, Kd=Tracer222 Kd • All measurements reported using the same units (uM)
row,Ki,Structure (SMILES)
1,3.9 nM,"Cc1cc(Nc2cc3cc(-c4cnccc4C)ncc3cn2)nc(N)n1 [Compound 210, 6-methyl-N^4-(6-(4-methylpyridin-3-yl)-2,7-naphthyridin-3-yl)pyrimidine-2,4-diamine]"
2,24 nM,"Cc1ccncc1-c1cc2cc(Nc3ccc(C(=O)N(C)C)cn3)ncc2cn1 [Compound 204, N,N-dimethyl-6-((6-(4-methylpyridin-3-yl)-2,7-naphthyridin-3-yl)amino)nicotinamide]"
3,11 nM,"CNS(=O)(=O)c1ccc(Nc2cc3cc(-c4cnccc4C)ncc3cn2)nc1 [Compound 207, N-methyl-6-((6-(4-methylpyridin-3-yl)-2,7-naphthyridin-3-yl)amino)pyridine-3-sulfonamide]"
4,0.39 nM,"Cc1c(-c2cc3cc(Nc4cc5n(n4)CC(=O)N(C(C)C)CC5)ncc3cn2)cnc2c1NCCO2 [Compound 103, 6-isopropyl-2-((6-(8-methyl-2,3-dihydro-1H-pyrido[2,3-b][1,4]oxazin-7-yl)-2,7-naphthyridin-3-yl)amino)-5,6-dihydro-4H-pyrazolo[1,5-d][1,4]diazepin-7(8H)-one]"
5,28 nM,"Cc1ccncc1-c1cc2cc(Nc3ccc(CCO)cn3)ncc2cn1 [Compound 208, 2-(6-((6-(4-methylpyridin-3-yl)-2,7-naphthyridin-3-yl)amino)pyridin-3-yl)ethan-1-ol]"
